Source: patent US20250099488A1, “ANTI-PARASITE COMPOUNDS” (AUSTRALIAN NATIONAL UNIVERSITY, priority 2022, published 2025)
Read-outs that look alike come from different tables or passages of the source.

Tests used:
[1] = test system: P. falciparum CAM3.IIREV (susceptible); test: Ring stage survival assay, susceptible revertant strain; assay type: cell-based, Plasmodium falciparum; conditions: 700 nM for six hours, then 66 hours without drug
Description: (§1) The inventors tested these compounds in a ring stage survival assay, which allows the detection of resistant parasites against this […] drug and is the standard method for investigating resistance to artemisinin and its derivatives (Witkowski B, Menard D, Amaratunga C. Fairhurst R. Ring-stage Survival Assays (RSA) to evaluate the in-vitro and ex-vivo susceptibility of Plasmodium falciparum to artemisinins Procedure. Inst Pasteur du Cambodge—Natl Institutes Heal [Internet]. 2013 Sep. 11 [cited 2022 Jun. 19]; Procedure; available from: https://www.wwarn.org/sites/default/files/INV10-Standard-Operating-Procedure-Ring-Stage-Survival-Assays.pdf). This assay involves a short treatment window against newly-invaded ring stage parasites, followed by removal of drug pressure to mimic the clearance of the drug from plasma. We utilised two parasite strains: an isolate from Cambodia (CAM3.II) with a mutated Kelch-13 conferring resistance, and a genetically modified revertant of this strain (CAM3.IIREV) conferring drug susceptibility (Straimer J, Gnädig N F, Witkowski B, Amaratunga C, Duru V, Ramadani A P, et al. K13-propeller mutations confer artemisinin resistance in Plasmodium falciparum clinical isolates. Science (80-) [Internet]. 2015 Jan. 23 [cited 2022 Jun. 19]; 347(6220):428-31; available from: https://www.science.org/doi/10.1126/science.1260867).
(§2) Following tight synchronisation, CAM3.II and CAM3.IIREV ring stage parasites (0-3 hours post invasion) at 1% parasitaemia and 2% haematocrit were incubated with 700 nM of compounds or solvent-only controls for exactly six hours, before removing the drug, thoroughly washing in RPMI, and returning to culture conditions for a further 66 hours. Some cells were treated with 700 nM artesunate for 72 hours as a no-growth control. DNA replication (indicating growth) was measured at the specified time using SYBR Safe DNA Gel Stain. Microscope slide smears of each condition were stained with 10% v/v Giemsa and examined under a light microscope (1 000× magnification); with ‘viable’ (morphologically normal) and ‘non-viable’ (morphologically aberrant; vacuolated or pyknotic) parasites distinguished according to standard protocol (Witkowski B, Menard D, Amaratunga C, Fairhurst R. Ring-stage Survival Assays (RSA) to evaluate the in-vitro and ex-vivo susceptibility of Plasmodium falciparum to artemisinins Procedure. Inst Pasteur du Cambodge—Natl Institutes Heal [Internet]. 2013 Sep. 11 [cited 2022 Jun. 19]; Procedure. Available from: https://www.wwam.org/sites/default/files/INV10-Standard-Operating-Procedure-Ring-Stage-Survival-Assays.pdf). Images were captured using a Leica ICC50 camera, with a resolution of 76 nm per pixel.

[2] = test system: P. falciparum CAM3.II (mutated Kelch-13, resistant); test: Ring stage survival assay, resistant strain; assay type: cell-based, Plasmodium falciparum; conditions: 700 nM for six hours, then 66 hours without drug; for Parasite survival (DNA replication): FIG. 17B
Description: as §1, §2

[3] = test system: P. falciparum gametocytes (stage III-IV); test: Gametocyte viability assay (MitoTracker, flow cytometry); assay type: cell-based, Plasmodium falciparum; conditions: Plasmodium falciparum, read-out: IC50, gametocyte viability
Description: Gametocyte assays begun eight days post-invasion (Stage III-IV).
(§3) Growth inhibition data were normalised by subtracting background fluorescence, luminescence, absorbance, or percentage of cells from a no-growth or no-viability control (high drug concentration, no-parasite control, or time=0 measurement as specified), and expressed as a percentage of the growth or cell percentage in the negative control (culture media alone or solvent control) at the indicated timepoint (or to the highest measurement reached during the assay for FIG. 15B).

[4] = HEK293 cell viability assay (MTT); assay type: cell-based, human; conditions: human, 96 hours, FIG. 16H / FIG. 18C, read-out: IC50, HEK293 cytotoxicity
Procedure: HEK293 cell viability assays began with 5000 cells per well. 10 μg/mL cycloheximide was used as a no-growth control. Metabolic capacity (indicating viability) was measured by incubation with 0.45 mg/mL methylthiazolyldiphenyl-tetrazolium bromide (MTT; Sigma M2128) for two hours followed by crystal solubilisation in SDS.

[5] = test system: asexual P. falciparum; test: Plasmodium growth inhibition assay (SYBR Safe), asexual stages; assay type: cell-based, Plasmodium falciparum; conditions: for Inhibitory effect on proliferation of asexual stages: FIG. 11D, cholesterol in ethanol, DMSO or ethyl acetate, DHEA
Procedure: Compounds or solvent controls (DMSO, ethanol, or ethyl acetate) were serially diluted 2-fold across flat-bottom 96-well plates. Complete culture media without compound was used as a negative control. Chloroquine (100-200 nM) {Sigma C6628} was used as a positive control to determine background fluorescence. The parasitaemia of a culture containing predominantly ring stage parasites was counted by Giemsa smear. The parasitaemia was adjusted to 1% by addition of fresh uRBCs, and added to the plate at a final haematocrit of 1%, with 200 μL per well. The plates were incubated at 37° C. under humid microaerophilic conditions. […] Fluorescence was read at 490 nm excitation/520 nm emission on a FLUOstar Optima fluorescence plate reader {BMG Labtech}.
Growth inhibition data were normalised by subtracting background fluorescence from a no-growth control (high drug concentration or time=0 measurement as specified), and expressed as a percentage of the growth in the negative control (media alone or solvent control) either at the indicated timepoint, or to the highest measurement reached during the assay.
P. falciparum asexual parasite assays begun with ring-stage parasites at 1% parasitaemia and 1% haematocrit. 200 nM chloroquine (Sigma C6628) was used as a no-growth control. […] 17]; 8 (2):e54974).
as §3

[6] = test system: Toxoplasma gondii tachyzoites; test: Toxoplasma growth inhibition assay (tdTomato fluorescence); assay type: cell-based; conditions: Toxoplasma gondii, 72 h, read-out: IC5 against T. gondii
Procedure: Fluorescent Toxoplasma gondii parasites were inoculated into an optical bottom 96-well plate containing confluent human foreskin fibroblast (HFF) host cells at a density of 2000 parasites/well, with a serial dilution of each compound, or media/DMSO alone. Plates were measured daily with a FluoStar Optima fluorescence plate reader at 540 nm excitation/590 nm emission for seven days, and the background fluorescence from the time 0 reading was subtracted from all other measurements.
Fluorescence was measured daily with a FluoStar Optima fluorescence plate reader for one week, and the background fluorescence from the time 0 reading was subtracted from all other measurements.
as §3

[7] = test system: P. berghei liver stages; test: P. berghei liver stage growth assay (luciferase) in Huh7 cells; assay type: cell-based, Plasmodium berghei; conditions: Plasmodium berghei, Huh-7; 48 hours of treatment from sporozoite inoculation, Huh7 cells, FIG. 16A
Procedure: (§4) Huh7 cells were seeded at a density of 10 000 cells per well, or 20 000 per collagen-coated coverslip. […] Uninfected wells served as a control for background luminescence. […] Data are presented as a percentage of the size or parasite number of the solvent control to normalize for differences between experiments. For cell images presented in the figure, images were collected under optimal exposure settings to ensure features were visible. Individual cells were cropped from larger images with Fiji ImageJ, and the brightness was adjusted while ensuring that no fluorescence was removed. No other manipulations were performed.
as §3

[8] = test system: P. berghei liver stage schizonts; test: P. berghei liver stage parasite size and number (fluorescence microscopy) in Huh7 cells; assay type: cell-based, Plasmodium berghei; conditions: 3 μM, 48 hours post-infection, vs DMSO
Procedure: as §4

[9] = test system: human hepatoma cells (Huh7); test: Huh7 hepatoma viability assay (CellTiter-Blue); assay type: cell-based; conditions: 48 hours; effect on cellular integrity / modest cytotoxicity
Procedure: Huh7 hepatoma viability assays were conducted in the same manner as the P. berghei assays, with metabolic capacity (indicating viability) measured by incubation with CellTiter-Blue® (Promega) for 3 hours.

[10] = test system: human foreskin fibroblasts (HFF); test: HFF growth inhibition assay (SYBR Safe); assay type: cell-based; conditions: 72 hours, FIG. 16G
Procedure: Cells were incubated with a serial dilution of each compound, or media/DMSO alone. The protein synthesis inhibitor cycloheximide (10 μg/mL) was used as a positive control to determine background fluorescence. Approximately 5000 cells were seeded in each well. […] Plates were transferred to a −18° C. freezer. […] Fluorescence was read at 490 nm excitation/520 nm emission on a FLUOstar Optima fluorescence plate reader.
HFF cell growth inhibition assays began with 5000 cells per well. 10 μg/mL cycloheximide was used as a no-growth control.

[11] = Plasmodium falciparum, 72 hours, FIG. 18B, read-out: IC50
[12] = Plasmodium falciparum, 24 hours, starting with ring-stage parasites, FIG. 14B, read-out: IC50

## C[C@H]1[C@H](OC(=O)CCC(=O)O[C@H]2CC[C@H]3[C@@H]4CC=C5C[C@@H](O)CC[C@]5(C)[C@H]4CC[C@]23C)O[C@@H]2O[C@]3(C)CC[C@H]4[C@H](C)CC[C@@H]1[C@@]24OO3 [C-17-art, 3β-Hydroxyandrost-5-en-17β-yl succinate-artesunate ester]
[1]
  Morphology in Giemsa-stained smears: only morphologically aberrant parasites were present
[2]
  Morphology in Giemsa-stained smears: only aberrant, non-viable parasites were visible
  Parasite survival (DNA replication): kills all cells

## COc1cc(NC(C)CCCNC(=O)CCC(=O)OC(C)C)c2ncccc2c1 (stereo not drawn) [prim-link, Propan-2-yl succinate-primaquine amide]
[3]; 48 hours of incubation, stage III-IV, FIG. 14C
  IC50: > 100 µM
[4]; HEK293 cells
  IC50 at 96 h: 13.3 µM

## CC(C)CCC[C@@H](C)[C@H]1CC[C@H]2[C@@H]3CC=C4C[C@@H](O)CC[C@]4(C)[C@H]3CC[C@]12C [cholesterol, Cholesterol, reference compound]
[5]
  Inhibitory effect on proliferation of asexual stages: No inhibitory effect could be detected in the concentration range being used
[5]; [11]
  IC50: > 400 µM

## COc1cc(NC(C)CCCNC(=O)CCC(=O)O[C@H]2CC[C@@]3(C)C(=CC[C@H]4[C@@H]5CC[C@H]([C@H](C)CCCC(C)C)[C@@]5(C)CC[C@@H]43)C2)c2ncccc2c1 (stereo partly drawn) [C-3-prim, Cholester-3-yl succinate-primaquine amide]
[5]; 24 hours
  No inhibition of parasite growth up to (concentration): > 100 µM
[5]; [12]
  IC50: > 200 µM

## CC(C)(C)OOC(C)(C)C [di-ter-butyl peroxide, di-tert-butyl peroxide, reference compound]
[5]; 72 hours, FIG. 18B, read-out: IC50
  IC50: > 25 µM

## COc1cc(NC(C)CCCN)c2ncccc2c1 (stereo not drawn) [primaquine, reference compound]
[6]
  IC50: 9.7 µM
[3]; 48 h
  IC50: 63.5 µM
[5]; 24 hours
  Hill slope of inhibitory curve: −1.65
[5]; 72 hours
  Hill slope of inhibitory curve: −1.48
[5]; FIG. 8B, Example 2
  IC10: 12 µM
[5]; Plasmodium falciparum, 24 h
  IC90: 41 µM
[5]; Plasmodium falciparum, 72 h
  IC50: 3.2 µM
[7]
  IC50: 2.9 µM
[8]
  Smaller parasite size (reduction): 61%
[4]
  IC50 at 96 h: 10.6 µM

## CC(C)CCC[C@@H](C)[C@H]1CC[C@H]2[C@@H]3CC=C4C[C@@H](OC(=O)CCC(=O)OC(C)C)CC[C@]4(C)[C@H]3CC[C@]12C [C-3-link, 3β-Succinate-(propan-2-yldiester)-cholest-5-ene]
[5]; 24 hours
  No inhibition of parasite growth up to (concentration): > 200 µM
[5]; [12]
  IC50: > 200 µM

## Cc1ncc([N+](=O)[O-])n1CCOC(=O)CCC(=O)O[C@H]1CC[C@H]2[C@@H]3CC=C4C[C@@H](O)CC[C@]4(C)[C@H]3CC[C@]12C [BC62D, 3β-Hydroxyandrost-5-en-17β-yl succinate-metronidazole diester]
[5]; Plasmodium falciparum, Example 4, FIG. 20B, read-out: IC50
  IC50: 24 µM

## CC(C)OC(=O)CCC(=O)O[C@@H]1O[C@@H]2O[C@]3(C)CC[C@H]4[C@H](C)CC[C@@H]([C@H]1C)[C@@]24OO3 [art-link, Propan-2-yl artesunate ester]
[1]
  Morphology in Giemsa-stained smears: only morphologically aberrant parasites were present
[2]
  Morphology in Giemsa-stained smears: a combination of morphologically normal parasites and morphologically aberrant pyknotic or vacuolated forms
  Parasite survival (DNA replication): showed a trend to improved efficacy over artesunate

## Cc1ncc([N+](=O)[O-])n1CCO [Metronidazole, metronidazole, reference compound]
[5]; Example 4, FIG. 20B
  IC50: almost no effect in the range tested

## CC1CCC2C(C)C(OC(=O)CCC(=O)OC3CCC4C5CC=C6CC(O)CCC6(C)C5CCC34C)OC3OC4(C)CCC1C32OO4 (stereo not drawn) [PAYb076a]
[5]; 72 hrs, FIG. 13B/13C
  Effect of steroid-artesunate conjugates on proliferation: better activity than coupling via C3

## CC(C)OC(=O)CCC(=O)O[C@H]1CC[C@H]2[C@@H]3CC=C4C[C@@H](O)CC[C@]4(C)[C@H]3CC[C@]12C [C-17-link, 3β-Hydroxyandrost-5-en-17β-yl succinate-propan-2-yl diester]
[3]; 48 h
  IC50: > 100 µM
[1]; FIG. 17B
  Parasite survival / growth inhibition (DNA replication): did not significantly impact on the growth of either strain
[2]
  Parasite survival (DNA replication): did not significantly impact on the growth of either strain
[9]
  Concentration at which cytotoxic effect was detected: > 30 µM
[10]
  IC50, fibroblast growth: no notable inhibition was observed
[4]
  IC50 at 96 h: 43.6 µM

## C[C@]12CC[C@H](O)CC1=CC[C@@H]1[C@@H]2CC[C@]2(C)C(=O)CC[C@@H]12 [DHEA, 3β-Hydroxyandrost-5-en-17-one, reference compound]
[5]
  Inhibitory effect on proliferation of asexual stages: influences proliferation, although at relatively high concentrations
[5]; [11]
  IC50: 150 µM
